Source: US20210322508A1, “PEPTIDES AND COMPOSITIONS FOR TARGETED TREATMENT AND IMAGING” (SIGNABLOK, INC., priority 2018, published 2021)

Legend:
[1] = tolerability in healthy mice (body weight); assay type: in vivo; conditions: healthy C57BL/6 mice, average weights
Method: As described herein, healthy C57BL/6 mice were intraperitoneally (i.p.) administered daily for 7 consecutive days with GF9 at indicated doses Mouse body weight (BW) was measured daily.

[2] = Mouse tolerability studies; assay type: in vivo; conditions: female, C57BL/6, mouse, in vivo, ip, 400 mg/kg; free form, healthy mice
Method: Naïve, female C57BL/6 mice at 8 to 10 weeks of age (18 to 21 g) from the Jackson Laboratory were used. […] Clinical observations and body weights were made twice daily.
Naïve, female C57BL/6 mice at 8 to 10 weeks of age (18 to 21 g) from the Jackson Laboratory were used. Animals were randomly grouped (5 mice per group) and i.p. injected with 400 mg/kg G-HV21, G-KV21 or G-TE21. Clinical observations and body weights were made twice daily.

[3] = tested on: LPS-stimulated J774A.1 macrophages (TNF-alpha, IL-6, IL-1beta); assay: In vitro cytokine release by LPS-stimulated macrophages; assay type: cell-based, mouse; conditions: 10 ng/ml after pre-incubation with HDL; LPS 1 μg/ml, 24 h
Method: (§1) The BALB/c murine macrophage cell line J774A.1 (ATCC TIB-67) were obtained from the American Type Culture Collection (ATCC, Manassas, Va.). Macrophages were cultured in 48-well plates (Corning, Cambridge, Mass.) for 24 h at 37° C. in the presence of LPS (1 μg/ml, Escherichia coli 055:B5, Sigma) in combination with 10 ng/ml peptides either pre-incubated or not with HDL. Cell-free supernatants were harvested and stored at −20° C. for later cytokine quantification. TNF-alpha, IL-6, and IL-1beta were assayed using commercial ELISA kits (Pierce Biotechnology, Thermo Scientific, Rockford, Ill.) according to the recommendations of the manufacturer. Results were represented as the mean±S.D. of three independent experiments. Statistical significances in in vitro macrophage uptake assay were determined by two-tailed Student's t test.
as §1, with “Macrophages were cultured in 48-well plates (Corning, Cambridge, Mass.) for 24 h at 37° C. in the presence of LPS (1 μg/ml, Escherichia coli 055:B5, Sigma) in combination with 10 ng/ml peptides either pre-incubated or not with HDL.” left out

J774A.1 macrophages = assay: In vitro macrophage endocytosis of fluorescent peptides with or without HDL; assay type: cell-based, mouse; conditions: in the presence or absence of HDL
Method: The BALB/c murine macrophage cell line J774A.1 (ATCC TIB-67) were obtained from the American Type Culture Collection (ATCC, Manassas, Va.). The macrophage cells were cultured at 37° C. with 5% CO2 in Dulbecco's modified Eagle's medium (DMEM) (Cellgro, Mediatech Inc, Manassas, Va.) with 2 mM glutamine, 100 U/ml penicillin, 0.1 mg/ml streptomycin, and 10% fetal bovine serum (FBS) (Cellgro, Mediatech Inc, Manassas, Va.) and grown to approximately 90% of confluence in 6-well tissue culture plates (Corning, Tewksbury, Mass.). Cells were incubated for varied time periods from 4 to 24 h at 37° C. with fluorescently labeled peptides (pre-incubated with 1 mg/ml HDL) at a concentration of 4 μM rhodamine B (rho-B). After incubation, cells were washed twice with PBS and lysed using Promega passive lysis buffer (Promega, Madison, Wis.). The rho B fluorescence was measured in the lysates with a 540 nm excitation and a 590 nm emission filters using the Gemini EM fluorescence microplate reader (Molecular Devices, Sunnyvale, Calif.). The protein concentration in the lysates was determined using the Bradford reagent (Bio-Rad, Richmond, Calif.) and the SpectraMax 190 microplate reader (Molecular Devices, Sunnyvale, Calif.).
In one embodiment, after reaching target confluency, cells were incubated for 1 h in medium with or without fucoidan (400 μg/mL), BLT-1 (10 μM) or cytochalasin D (40 μM), Cells were subsequently incubated for 4 h and 22 h at 37° C. in medium containing 2 μM of rho B-labeled peptides G-KV21 and G-HV21 (as calculated for rho B) that were pre-incubated with 1 mg/ml HDL. After incubation, cells were washed twice with PBS and lysed using Promega passive lysis buffer. The rho B fluorescence and protein concentration were measured in the lysates as described above.

[4] = in vivo; cited from earlier work

Row | Compound | toxicity in healthy mice [1] | MTD [2] | production of cytokines by LPS-stimulated macrophages [3] | macrophage endocytosis, effect of sulfoxidized methionine residue (J774A.1 macrophages) | behaviour on ultracentrifugation of whole mouse serum (mouse lipoproteins) | safety in humans [4]
1 | CC(C)C[C@H](NC(=O)[C@H](Cc1ccccc1)NC(=O)CN)C(=O)N[C@@H](CO)C(=O)N[C@@H](CCCCN)C(=O)N[C@@H](CO)C(=O)N[C@@H](CC(C)C)C(=O)N[C@H](C(=O)N[C@@H](Cc1ccccc1)C(=O)N[C@H](C(=O)N[C@@H](CCCCN)C(=O)N1CCC[C@H]1C(=O)N[C@@H](CCC(=O)O)C(=O)N[C@@H](CO)C(=O)N[C@@H](CCC(=O)O)C(=O)N[C@@H](CCCNC(=N)N)C(=O)N[C@@H](CC[S+](C)[O-])C(=O)N1CCC[C@H]1C(=O)N[C@@H](CS)C(=O)N[C@H](C(=O)N[C@@H](CCC(=O)O)C(=O)O)[C@@H](C)O)[C@@H](C)O)C(C)C (stereo partly drawn) [G-TE21, reference compound] | No toxicity was observed | ≥ 400 mg/kg | does not affect on cytokine release by LPS-stimulated macrophages | does not promote macrophage endocytosis neither in the presence or absence of HDL | sedimentate with serum proteins | –
2 | LQEEDAGEYGCM [LR12] | – | – | – | – | – | safe
